Read-outs that look alike come from different tables or passages of the source.
What was measured:
[1] = molecular target: Deacetylase, Sirtuin SIRT6 (Homo sapiens, UniProt Q8N6T7); test: Deacetylase, Sirtuin SIRT6 (PanLab); assay type: biochemical; settings: assay year 2014, read-out: % Control Response
Deacetylase, Histone 11 = Deacetylase, Histone 11 (Homo sapiens, UniProt Q96DB2); test: Deacetylase, Histone 11 (PanLab); assay type: biochemical; settings: assay year 2014, read-out: % Control Response
[2] = molecular target: Deacetylase, Sirtuin SIRT5 (Homo sapiens, UniProt Q9NXA8); test: Deacetylase, Sirtuin SIRT5 (PanLab); assay type: biochemical; settings: assay year 2014, read-out: % Control Response
Deacetylase, Histone 6 = Deacetylase, Histone 6 (Homo sapiens, UniProt Q9UBN7); test: Deacetylase, Histone 6 (PanLab); assay type: biochemical; settings: assay year 2014, read-out: % Control Response
Deacetylase, Histone 4 = Deacetylase, Histone 4 (Homo sapiens, UniProt P56524); test: Deacetylase, Histone 4 (PanLab); assay type: biochemical; settings: assay year 2014, read-out: % Control Response
Chemokine CCR2B = molecular target: T1, Chemokine CCR2B (Homo sapiens, UniProt P41597); test: Chemokine CCR2B radio ligand binding; settings: assay year 2015, read-out: % Control Response
T1 construct: expressed in transfected cells; host or cells: CHO-K1 cells
T1 sequence (P41597 1-360 isoform P41597-2): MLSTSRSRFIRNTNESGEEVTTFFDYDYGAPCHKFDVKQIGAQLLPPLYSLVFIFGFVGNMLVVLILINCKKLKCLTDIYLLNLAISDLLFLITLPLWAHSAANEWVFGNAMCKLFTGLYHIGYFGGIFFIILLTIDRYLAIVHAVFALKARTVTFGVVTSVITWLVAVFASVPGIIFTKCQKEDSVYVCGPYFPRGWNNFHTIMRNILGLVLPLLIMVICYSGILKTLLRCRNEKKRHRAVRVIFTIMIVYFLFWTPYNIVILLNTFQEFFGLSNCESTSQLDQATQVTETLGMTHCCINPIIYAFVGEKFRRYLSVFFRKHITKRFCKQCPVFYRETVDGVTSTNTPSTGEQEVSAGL
Description: (§1) The in vitro pharmacological studies were conducted by Eurofins PanLab (Taiwan) using the parameters shown in Table 13 with respect to appropriate literature references.

[3] = molecular target: sirtuin 1 (h) (activator effect) (Homo sapiens, UniProt Q96EB6); assay type: biochemical; settings: 10 μM
[4] = tested on: Nitric Oxide Synthase, Endothelial (eNOS); test: Nitric Oxide Synthase, Endothelial (eNOS); assay type: biochemical; settings: 10 μM; assay year 2014
MLL4(h) complex = test: Epigenetic enzyme assay, Methyltransferases (MTs); assay type: biochemical, human; settings: for % Inhibition of Control Values: 10 μM
[5] = molecular target: Deacetylase, Sirtuin SIRT1 (Homo sapiens, UniProt Q96EB6); test: Deacetylase, Sirtuin SIRT1 (PanLab); assay type: biochemical; settings: assay year 2014, read-out: % Control Response
Deacetylase, Histone 5 = Deacetylase, Histone 5 (Homo sapiens, UniProt Q9UQL6); test: Deacetylase, Histone 5 (PanLab); assay type: biochemical; settings: assay year 2014, read-out: % Control Response
[6] = molecular target: Deacetylase, Sirtuin SIRT3 (Homo sapiens, UniProt Q9NTG7); test: Deacetylase, Sirtuin SIRT3 (PanLab); assay type: biochemical; settings: assay year 2014, read-out: % Control Response
Deacetylase, Histone 10 = Deacetylase, Histone 10 (Homo sapiens, UniProt Q969S8); test: Deacetylase, Histone 10 (PanLab); assay type: biochemical; settings: assay year 2014, read-out: % Control Response
Deacetylase, Histone 3 = Deacetylase, Histone 3 (Homo sapiens, UniProt O15379); test: Deacetylase, Histone 3 (PanLab); assay type: biochemical; settings: assay year 2014, read-out: % Control Response
MDA-MB-415 = test: OncoPanel cell proliferation assay (10-day); assay type: cell-based, human; settings: for EC50 / GI50 / IC50: Homo sapiens, MDA-MB-415, Breast; for EC50: read-out: Cell Count EC50; for GI50: read-out: Cell Count GI50; for IC50: read-out: Cell Count IC50
H3K9 ac (increase) = test: Cell-based stimulation assay; settings: 10 μM
Deacetylase, Histone 8 = Deacetylase, Histone 8 (Homo sapiens, UniProt Q9BY41); test: Deacetylase, Histone 8 (PanLab); assay type: biochemical; settings: assay year 2014, read-out: % Control Response
Wi38 = test: OncoPanel normal cell proliferation assay (3-day); assay type: cell-based; settings: Homo sapiens, WI-38, 72 h, Wi38, lung fibroblast, 3-day incubation
[7] = molecular target: Nitric Oxide Synthase, Neuronal (nNOS) (Rattus norvegicus, UniProt P29476); test: Nitric Oxide Synthase, Neuronal (nNOS); assay type: biochemical; settings: assay year 2014, read-out: % Control Response
Deacetylase, Histone 9 = Deacetylase, Histone 9 (Homo sapiens, UniProt Q9UKV0); test: Deacetylase, Histone 9 (PanLab); assay type: biochemical; settings: assay year 2014, read-out: % Control Response
Histamine H2 = molecular target: T2, Histamine H2 (Homo sapiens, UniProt P25021); test: Histamine H2 radio ligand binding
T2 construct: expressed in transfected cells; host or cells: CHO-K1 cells
Description: as §1

[8] = tested on: IL-2 secretion from human CD4-positive T-cells stimulated with antiCD2/antiCD3/antiCD28-coated beads; test: T-cell IL-2 assay; assay type: cell-based
H3K27 ac (increase) = test: Cell-based stimulation assay; settings: 10 μM
[9] = tested on: human pancreatic carcinoma MIA PaCa-2; settings: for % T/C / % TGI / Tumor Volume, Mean: 100 mg/kg QWK x 3 IP
[10] = tested on: Nitric Oxide Synthase, Inducible (iNOS); test: Nitric Oxide Synthase, Inducible (iNOS); assay type: biochemical; settings: 10 μM; assay year 2014
Deacetylase, Histone 7 = Deacetylase, Histone 7 (Homo sapiens, UniProt Q8WUI4); test: Deacetylase, Histone 7 (PanLab); assay type: biochemical; settings: assay year 2014, read-out: % Control Response
[11] = molecular target: Deacetylase, Sirtuin SIRT2 (Homo sapiens, UniProt Q8IXJ6); test: Deacetylase, Sirtuin SIRT2 (PanLab); assay type: biochemical; settings: assay year 2014, read-out: % Control Response
NSD1 (h) = NSD1 (h) (Homo sapiens, UniProt Q96L73); settings: read-out: Reference: (IC50 not given); cited from earlier work
[12] = assay year 2014, read-out: % Control Response
[13] = assay year 2015, read-out: % Control Response

T2 sequence (P25021 whole entry): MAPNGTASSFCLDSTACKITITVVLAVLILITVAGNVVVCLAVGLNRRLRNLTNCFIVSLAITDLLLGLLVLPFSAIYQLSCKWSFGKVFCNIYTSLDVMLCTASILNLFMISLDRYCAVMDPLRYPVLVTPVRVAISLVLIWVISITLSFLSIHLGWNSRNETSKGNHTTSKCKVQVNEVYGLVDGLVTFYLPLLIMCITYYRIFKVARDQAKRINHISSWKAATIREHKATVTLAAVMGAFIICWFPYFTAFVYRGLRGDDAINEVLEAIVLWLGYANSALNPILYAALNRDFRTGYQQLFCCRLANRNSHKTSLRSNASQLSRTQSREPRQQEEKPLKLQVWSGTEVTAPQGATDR
sirtuin 1 (h) (activator effect), sequence (Q96EB6 whole entry): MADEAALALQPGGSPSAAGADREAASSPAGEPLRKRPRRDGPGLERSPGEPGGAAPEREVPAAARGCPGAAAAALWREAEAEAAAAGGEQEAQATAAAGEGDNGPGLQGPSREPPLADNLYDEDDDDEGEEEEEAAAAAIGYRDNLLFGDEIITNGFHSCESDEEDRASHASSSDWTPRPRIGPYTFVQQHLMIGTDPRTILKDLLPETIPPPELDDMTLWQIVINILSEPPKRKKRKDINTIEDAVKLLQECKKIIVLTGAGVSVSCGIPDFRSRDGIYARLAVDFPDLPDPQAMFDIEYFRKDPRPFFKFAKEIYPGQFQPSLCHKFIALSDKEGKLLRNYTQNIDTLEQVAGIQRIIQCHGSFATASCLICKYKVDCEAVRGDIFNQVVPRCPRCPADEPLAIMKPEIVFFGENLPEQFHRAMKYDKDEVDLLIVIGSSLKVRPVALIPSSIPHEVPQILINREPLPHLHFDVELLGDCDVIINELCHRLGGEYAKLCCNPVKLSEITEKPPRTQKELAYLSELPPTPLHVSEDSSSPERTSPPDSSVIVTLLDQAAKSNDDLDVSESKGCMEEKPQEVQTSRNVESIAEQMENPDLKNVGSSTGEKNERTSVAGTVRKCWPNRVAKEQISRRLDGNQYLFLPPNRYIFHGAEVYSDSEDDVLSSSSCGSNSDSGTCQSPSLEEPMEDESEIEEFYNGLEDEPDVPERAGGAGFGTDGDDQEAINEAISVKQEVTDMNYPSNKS
Deacetylase, Sirtuin SIRT1, sequence (Q96EB6 whole entry): as above
Deacetylase, Histone 9, sequence (Q9UKV0 whole entry): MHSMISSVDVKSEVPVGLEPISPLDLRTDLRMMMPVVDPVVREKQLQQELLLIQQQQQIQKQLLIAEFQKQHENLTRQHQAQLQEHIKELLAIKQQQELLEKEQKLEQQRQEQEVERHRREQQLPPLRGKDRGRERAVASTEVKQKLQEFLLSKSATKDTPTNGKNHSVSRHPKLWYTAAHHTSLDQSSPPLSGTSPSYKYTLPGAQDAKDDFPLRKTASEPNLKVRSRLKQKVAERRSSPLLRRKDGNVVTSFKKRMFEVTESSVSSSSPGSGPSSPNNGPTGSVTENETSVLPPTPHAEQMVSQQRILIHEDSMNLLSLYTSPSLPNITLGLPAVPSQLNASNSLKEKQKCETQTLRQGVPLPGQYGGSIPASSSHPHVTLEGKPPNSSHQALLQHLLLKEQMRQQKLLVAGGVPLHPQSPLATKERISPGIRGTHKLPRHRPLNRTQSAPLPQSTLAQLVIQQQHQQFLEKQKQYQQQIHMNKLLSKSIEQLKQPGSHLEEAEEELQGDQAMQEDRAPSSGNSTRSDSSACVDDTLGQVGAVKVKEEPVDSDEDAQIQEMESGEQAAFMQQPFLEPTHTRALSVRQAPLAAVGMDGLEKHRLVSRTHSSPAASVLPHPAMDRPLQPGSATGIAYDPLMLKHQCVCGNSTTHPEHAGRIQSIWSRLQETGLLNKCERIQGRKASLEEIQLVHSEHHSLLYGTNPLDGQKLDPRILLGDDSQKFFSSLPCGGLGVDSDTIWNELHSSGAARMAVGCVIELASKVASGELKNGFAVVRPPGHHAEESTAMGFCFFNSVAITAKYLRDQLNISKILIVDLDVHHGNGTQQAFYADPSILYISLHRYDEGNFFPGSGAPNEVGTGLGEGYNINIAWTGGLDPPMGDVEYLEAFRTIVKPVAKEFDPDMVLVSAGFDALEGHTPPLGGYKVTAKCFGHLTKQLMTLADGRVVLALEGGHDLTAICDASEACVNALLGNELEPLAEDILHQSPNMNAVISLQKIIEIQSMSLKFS
Deacetylase, Histone 3, sequence (O15379 whole entry): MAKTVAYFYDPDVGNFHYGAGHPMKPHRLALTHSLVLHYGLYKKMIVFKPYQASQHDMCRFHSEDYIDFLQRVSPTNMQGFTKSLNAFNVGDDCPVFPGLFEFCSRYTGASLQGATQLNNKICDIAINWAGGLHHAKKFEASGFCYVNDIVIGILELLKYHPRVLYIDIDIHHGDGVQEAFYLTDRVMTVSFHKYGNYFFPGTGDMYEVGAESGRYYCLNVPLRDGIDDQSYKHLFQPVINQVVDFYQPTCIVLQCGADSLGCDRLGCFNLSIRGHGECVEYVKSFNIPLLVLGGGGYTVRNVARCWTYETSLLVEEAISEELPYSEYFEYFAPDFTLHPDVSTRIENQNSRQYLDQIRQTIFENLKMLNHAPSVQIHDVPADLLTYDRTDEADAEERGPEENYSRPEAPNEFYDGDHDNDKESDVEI
Deacetylase, Histone 3, sequence (Q9Y618 395-489 partner limits assumed): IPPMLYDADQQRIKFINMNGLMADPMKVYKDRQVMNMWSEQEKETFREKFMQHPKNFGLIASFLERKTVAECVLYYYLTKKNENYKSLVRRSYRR
Deacetylase, Histone 8, sequence (Q9BY41 whole entry): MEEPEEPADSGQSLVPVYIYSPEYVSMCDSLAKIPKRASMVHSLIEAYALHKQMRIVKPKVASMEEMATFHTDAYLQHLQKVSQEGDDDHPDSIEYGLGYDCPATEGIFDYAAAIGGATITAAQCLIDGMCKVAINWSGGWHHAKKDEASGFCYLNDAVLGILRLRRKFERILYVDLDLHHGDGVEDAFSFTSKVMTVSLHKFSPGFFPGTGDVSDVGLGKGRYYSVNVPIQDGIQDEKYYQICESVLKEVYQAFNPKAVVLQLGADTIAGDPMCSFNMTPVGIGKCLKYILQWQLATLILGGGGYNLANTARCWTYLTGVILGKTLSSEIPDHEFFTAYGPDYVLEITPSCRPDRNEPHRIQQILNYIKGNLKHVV
Deacetylase, Histone 11, sequence (Q96DB2 whole entry): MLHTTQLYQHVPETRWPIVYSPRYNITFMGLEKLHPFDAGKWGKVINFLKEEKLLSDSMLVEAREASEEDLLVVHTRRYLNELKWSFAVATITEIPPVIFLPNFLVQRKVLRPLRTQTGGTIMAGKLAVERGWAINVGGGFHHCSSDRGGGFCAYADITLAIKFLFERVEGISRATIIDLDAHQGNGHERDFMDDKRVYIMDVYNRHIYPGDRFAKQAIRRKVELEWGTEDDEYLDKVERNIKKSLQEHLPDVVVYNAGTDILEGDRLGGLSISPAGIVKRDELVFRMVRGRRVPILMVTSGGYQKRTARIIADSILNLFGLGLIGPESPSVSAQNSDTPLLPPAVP
Deacetylase, Histone 6, sequence (Q9UBN7 whole entry): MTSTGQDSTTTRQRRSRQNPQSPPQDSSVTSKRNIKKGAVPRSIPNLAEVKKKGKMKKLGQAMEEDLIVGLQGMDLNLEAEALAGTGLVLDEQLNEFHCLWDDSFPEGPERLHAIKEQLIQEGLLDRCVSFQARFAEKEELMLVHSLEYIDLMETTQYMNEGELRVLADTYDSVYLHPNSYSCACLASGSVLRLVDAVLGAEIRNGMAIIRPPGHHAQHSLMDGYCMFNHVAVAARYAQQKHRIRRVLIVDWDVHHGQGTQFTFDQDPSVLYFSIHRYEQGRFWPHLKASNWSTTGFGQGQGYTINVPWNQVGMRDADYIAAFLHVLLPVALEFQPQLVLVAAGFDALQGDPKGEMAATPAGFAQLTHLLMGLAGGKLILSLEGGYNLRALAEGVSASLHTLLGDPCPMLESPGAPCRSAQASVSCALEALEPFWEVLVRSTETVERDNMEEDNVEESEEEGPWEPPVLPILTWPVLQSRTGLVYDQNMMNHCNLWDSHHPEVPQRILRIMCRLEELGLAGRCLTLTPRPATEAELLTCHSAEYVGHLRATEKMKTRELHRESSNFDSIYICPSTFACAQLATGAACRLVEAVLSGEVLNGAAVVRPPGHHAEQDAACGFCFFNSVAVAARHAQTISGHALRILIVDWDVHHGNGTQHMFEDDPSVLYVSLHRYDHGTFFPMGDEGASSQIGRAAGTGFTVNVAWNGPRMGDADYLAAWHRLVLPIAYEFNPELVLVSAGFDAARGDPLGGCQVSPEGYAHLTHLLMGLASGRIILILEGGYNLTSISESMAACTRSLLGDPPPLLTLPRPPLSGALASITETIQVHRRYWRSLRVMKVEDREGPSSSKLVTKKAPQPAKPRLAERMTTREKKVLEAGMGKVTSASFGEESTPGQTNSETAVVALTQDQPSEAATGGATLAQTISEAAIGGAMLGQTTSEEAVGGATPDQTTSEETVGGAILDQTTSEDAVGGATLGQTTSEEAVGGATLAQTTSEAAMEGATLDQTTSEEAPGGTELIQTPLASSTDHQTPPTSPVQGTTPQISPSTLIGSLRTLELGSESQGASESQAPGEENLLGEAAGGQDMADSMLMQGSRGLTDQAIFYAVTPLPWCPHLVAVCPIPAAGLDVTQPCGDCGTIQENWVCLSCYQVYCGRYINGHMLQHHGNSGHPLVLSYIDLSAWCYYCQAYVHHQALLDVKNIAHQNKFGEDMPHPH
Deacetylase, Sirtuin SIRT5, sequence (Q9NXA8 37-310): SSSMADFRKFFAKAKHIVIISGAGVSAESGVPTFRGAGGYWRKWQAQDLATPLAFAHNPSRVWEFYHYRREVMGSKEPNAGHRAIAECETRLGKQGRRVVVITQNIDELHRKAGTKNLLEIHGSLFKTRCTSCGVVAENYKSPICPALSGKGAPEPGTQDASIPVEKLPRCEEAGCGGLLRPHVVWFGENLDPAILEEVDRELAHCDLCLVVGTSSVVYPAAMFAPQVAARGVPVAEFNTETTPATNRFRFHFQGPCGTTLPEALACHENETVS

Structure (SMILES): CC(C)=CCC[C@H](CO)[C@@H]1CC[C@@H](C)c2c1cc(C)c(O)c2O [Compound 1, 7,8,18-trihydroxyserrulat-14-ene]
- remaining activity at 10 µM [1]: 35%
- remaining activity at 10 µM (Deacetylase, Histone 11): 9%
- remaining activity at 10 µM [2]: -16%
- remaining activity at 10 µM (Deacetylase, Histone 6): 0%
- remaining activity at 10 µM (Deacetylase, Histone 4): 4%
- remaining activity at 10 µM (Chemokine CCR2B): 1%
- % Stimulation Relative to Control [3]: −5%
- % Control Response [4]: 6%
- % Inhibition of Control Values (MLL4(h) complex): −16%
- remaining activity at 10 µM [5]: 6%
- remaining activity at 10 µM (Deacetylase, Histone 5): -9%
- remaining activity at 10 µM [6]: -6%
- remaining activity at 10 µM (Deacetylase, Histone 10): 11%
- remaining activity at 10 µM (Deacetylase, Histone 3): -5%
- Relative cell count (%) Mean (MDA-MB-415; 3.00E+00 microM): 1.3%
- Relative cell count (%) Mean (MDA-MB-415; 3.00E+01 microM): 0.2%
- Relative cell count (%) Mean (MDA-MB-415; 3.01E−01 microM): 100.2%
- Relative cell count (%) Mean (MDA-MB-415; 3.01E−02 microM): 93.4%
- Relative cell count (%) Mean (MDA-MB-415; 3.02E−03 microM): 100.0%
- Relative cell count (%) Mean (MDA-MB-415; 9.49E+00 microM): 0.3%
- Relative cell count (%) Mean (MDA-MB-415; 9.51E−01 microM): 62.3%
- Relative cell count (%) Mean (MDA-MB-415; 9.52E−02 microM): 98.1%
- Relative cell count (%) Mean (MDA-MB-415; 9.53E−03 microM): 98.0%
- Relative cell count (%) Mean (MDA-MB-415; 9.55E−04 microM): 90.2%
- EC50 (MDA-MB-415): 1.02 µM
- GI50 (MDA-MB-415): 1 µM
- IC50 (MDA-MB-415): 1.02 µM
- % Stimulation Relative to Control (H3K9 ac (increase)): −21%
- remaining activity at 10 µM (Deacetylase, Histone 8): 29%
- EC50 (Wi38; read-out: Cell Count EC50): 5.45 µM
- GI50 (Wi38; read-out: Cell Count GI50): 5.92 µM
- IC50 (Wi38; read-out: Cell Count IC50): 10.4 µM
- remaining activity at 10 µM [7]: 14%
- remaining activity at 10 µM (Deacetylase, Histone 9): -14%
- remaining activity at 10 µM (Histamine H2; [12]): 67%
- remaining activity at 10 µM (Histamine H2; [13]): 73%
- Emax ([8]; read-out: Inhibition of IL-2 release, Max Effect): 98%
- EC50 ([8]; read-out: Inhibition of IL-2 release, Rel EC50): 0.327 µM
- % Stimulation Relative to Control (H3K27 ac (increase)): −28%
- % T/C ([9]; Day 1): 100%
- % TGI ([9]; Day 1): 0%
- Tumor Volume, Mean ([9]; Day 1): 90 mm3
- % T/C ([9]; Day 4): 96%
- % TGI ([9]; Day 4): 4%
- Tumor Volume, Mean ([9]; Day 4): 90 mm3
- % T/C ([9]; Day 8): 101%
- % TGI ([9]; Day 8): −1%
- Tumor Volume, Mean ([9]; Day 8): 133 mm3
- % T/C ([9]; Day 11): 107%
- % TGI ([9]; Day 11): −7%
- Tumor Volume, Mean ([9]; Day 11): 211 mm3
- % T/C ([9]; Day 15): 92%
- % TGI ([9]; Day 15): 8%
- Tumor Volume, Mean ([9]; Day 15): 345 mm3
- anti-cancer activity ([9]; in combination with gemcitabine): effective in combination with gemcitabine
- % Control Response [10]: 16%
- remaining activity at 10 µM (Deacetylase, Histone 7): 1%
- remaining activity at 10 µM [11]: 0%

Structure (SMILES): CC(C)=CCC[C@@H]1C(O)Oc2c(C)cc(O)c3c2[C@H]1CC[C@H]3C (stereo partly drawn) [Compound 2, 5,18-epoxyserrulat-14-en-8,18-diol]
- remaining activity at 10 µM [1]: 18%
- remaining activity at 10 µM (Deacetylase, Histone 11): 5%
- remaining activity at 10 µM [2]: 24%
- remaining activity at 10 µM (Deacetylase, Histone 6): -17%
- remaining activity at 10 µM (Deacetylase, Histone 4): -5%
- remaining activity at 10 µM (Chemokine CCR2B): -23%
- % Control Response [4]: 5%
- % Inhibition of Control Values (MLL4(h) complex): −18%
- remaining activity at 10 µM [5]: -3%
- remaining activity at 10 µM (Deacetylase, Histone 5): -11%
- remaining activity at 10 µM [6]: -9%
- remaining activity at 10 µM (Deacetylase, Histone 10): 9%
- remaining activity at 10 µM (Deacetylase, Histone 3): 25%
- EC50 (MDA-MB-415): 11.5 µM
- GI50 (MDA-MB-415): 10.8 µM
- IC50 (MDA-MB-415): 11.5 µM
- remaining activity at 10 µM (Deacetylase, Histone 8): 13%
- remaining activity at 10 µM [7]: 5%
- remaining activity at 10 µM (Deacetylase, Histone 9): -13%
- remaining activity at 10 µM (Histamine H2; [12]): 24%
- remaining activity at 10 µM (Histamine H2; [13]): -5%
- % Control Response [10]: 7%
- remaining activity at 10 µM (Deacetylase, Histone 7): -16%
- remaining activity at 10 µM [11]: 26%

Structure (SMILES): CC(C)=CCC[C@@H]1COc2c(C)cc(O)c3c2[C@H]1CC[C@H]3C [Compound 3, 5,18-epoxy-8-hydroxyserrulat-14-ene]
- remaining activity at 10 µM (Chemokine CCR2B): -10%
- % Stimulation Relative to Control [3]: −4%
- % Inhibition of Control Values (MLL4(h) complex): −4%
- % Stimulation Relative to Control (H3K9 ac (increase)): −8%
- remaining activity at 10 µM (Histamine H2; [13]): 66%
- % Stimulation Relative to Control (H3K27 ac (increase)): −25%

Structure (SMILES): CC(C)=CCC[C@H](C)[C@@H]1CC[C@@H](C)c2c1cc(C)c(O)c2O [Compound 4, 7,8-dihydroxyserrulat-14-ene]
- EC50 (MDA-MB-415): 28.5 µM
- GI50 (MDA-MB-415): 27.4 µM
- IC50 (MDA-MB-415): 28.5 µM

Structure (SMILES): Nc1ncnc2c1ncn2[C@@H]1O[C@H](CSCC[C@H](N)C(=O)O)[C@@H](O)[C@H]1O [SAH]
- IC50 (MLL4(h) complex; read-out: Reference IC50): 0.55 µM
- IC50 (NSD1 (h)): 0.97 µM

From patent US11331299B2, “Medicinal use of serrulatane diterpenes” (The University of Sydney, priority 2016, dated 2022)
